Laboratory results as given in the supplement of paper PMC8967900.

Experiments:
Test in all cases: selective drug sensitivity score (sDSS, relative to normal bone marrow) (sDSS (score)); higher = more potent and effective on the cell line relative to normal bone marrow cells
Details in all cases: 72 h
LC4-1 = tested on: LC4-1
COG-LL-319h = tested on: COG-LL-319h
MN-60 = tested on: MN-60
PEER = tested on: PEER
DND-41 = tested on: DND-41
ALL-PO = tested on: ALL-PO
RCH-ACV = tested on: RCH-ACV
COG-LL-394h = tested on: COG-LL-394h
KASUMI-2 = tested on: KASUMI-2
PF-382 = tested on: PF-382
COG-LL-355h = tested on: COG-LL-355h
KASUMI-10 = tested on: KASUMI-10
MOLT-4 = tested on: MOLT-4
TMD5 = tested on: TMD5
KARPAS-45 = tested on: KARPAS-45
COG-LL-332h = tested on: COG-LL-332h
P12-ICHIKAWA = tested on: P12-ICHIKAWA
CCRF-HSB2 = tested on: CCRF-HSB2
P30-OHKUBO = tested on: P30-OHKUBO
MHH-CALL-4 = tested on: MHH-CALL-4
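Also: ALL cell lines in 384-well plates, five doses spanning 10,000-fold, each plate scaled between vehicle and 100 µmol/L benzalkonium chloride controls, sDSS an adapted area-under-curve metric.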

| Structure (SMILES) | selective drug sensitivity score (LC4-1) | selective drug sensitivity score (COG-LL-319h) | selective drug sensitivity score (MN-60) | selective drug sensitivity score (PEER) | selective drug sensitivity score (DND-41) | selective drug sensitivity score (ALL-PO) | selective drug sensitivity score (RCH-ACV) | selective drug sensitivity score (COG-LL-394h) | selective drug sensitivity score (KASUMI-2) | selective drug sensitivity score (PF-382) | selective drug sensitivity score (COG-LL-355h) | selective drug sensitivity score (KASUMI-10) | selective drug sensitivity score (MOLT-4) | selective drug sensitivity score (TMD5) | selective drug sensitivity score (KARPAS-45) | selective drug sensitivity score (COG-LL-332h) | selective drug sensitivity score (P12-ICHIKAWA) | selective drug sensitivity score (CCRF-HSB2) | selective drug sensitivity score (P30-OHKUBO) | selective drug sensitivity score (MHH-CALL-4) |
| --- | --- | --- | --- | --- | --- | --- | --- | --- | --- | --- | --- | --- | --- | --- | --- | --- | --- | --- | --- | --- |
| COC(=O)c1ccc([C@H]2c3[nH]c4ccccc4c3C[C@H](C(=O)OC)N2C(=O)CCl)cc1 [RSL3] (top concentration 10000 nM) | 0 | 0 | 0 | 0 | 0 | 0 | 4.5 | 0 | 0 | 0.9 | 3.8 | 0.3 | 0 | 0 | 0 | 0 | 0 | 0 | 2.7 | 0 |
| Cc1cnc(NC(=O)Nc2cc(Br)c(C)cc2OC[C@@H]2CNCCO2)cn1 [Rabusertib] (top concentration 1000 nM) | 0.16 | 4.26 | 3.56 | -0.74 | 6.16 | 0.46 | 2.06 | -0.74 | -0.74 | -0.64 | 1.96 | -0.74 | -0.74 | -0.74 | 0.36 | -0.74 | -0.74 | -0.74 | -0.74 | 0.16 |
| CCOCc1nc2c(N)nc3ccccc3c2n1CC(C)(C)O [Resiquimod] (top concentration 10000 nM) | -4.12 | 5.68 | -1.82 | -4.92 | -4.92 | -4.92 | -4.92 | -4.42 | -4.92 | -4.72 | -4.92 | -2.72 | -4.92 | -4.92 | -4.92 | -4.72 | -4.92 | -4.92 | -2.82 | -4.92 |
| C[C@H]1CNCCCN1S(=O)(=O)c1cccc2cncc(F)c12 [Ripasudil] (top concentration 10000 nM) | -0.22 | 1.18 | -0.22 | 1.88 | -0.22 | -0.22 | -0.22 | -0.22 | -0.22 | -0.22 | -0.22 | -0.22 | -0.22 | 0.98 | 0.88 | 1.78 | 1.18 | 1.58 | -0.22 | 0.18 |
| Cc1nc(C(=O)NCC(=O)O)c(O)c2ccc(Oc3ccccc3)cc12 [Roxadustat] (top concentration 10000 nM) | -1.12 | 2.28 | -1.12 | 0.58 | -1.12 | -0.82 | -1.12 | -1.12 | -0.92 | -0.52 | -1.12 | -1.12 | -1.12 | -1.12 | -1.12 | -1.02 | -0.82 | -0.52 | -1.12 | -1.12 |
| CN(C)C[C@@H]1CCn2cc(c3ccccc32)C2=C(C(=O)NC2=O)c2cn(c3ccccc23)CCO1 [Ruboxistaurin] (top concentration 10000 nM) | 0.16 | -1.04 | -5.44 | 0.46 | -0.44 | 6.86 | 1.06 | 0.76 | -3.34 | -1.34 | 1.26 | 1.96 | -1.24 | 0.46 | -0.14 | 1.16 | -1.74 | 1.36 | 0.46 | 1.46 |
| CN(CC(=O)N(Cc1ccc(C2CCCCC2)cc1)c1ccc(C(=O)O)cc1)S(=O)(=O)c1c(F)c(F)c(F)c(F)c1F [SH-4-54] (top concentration 25000 nM) | -3.34 | -3.04 | -6.54 | -4.54 | -2.74 | -6.04 | -2.24 | -5.34 | -2.84 | -3.74 | -0.54 | -3.64 | -6.04 | -5.94 | -4.24 | -0.04 | -6.04 | -5.04 | -5.24 | -5.44 |
| Cc1cc2c(C(=O)NC[C@H](C)c3ccccc3)c(O)c(O)cc2c(O)c1-c1c(C)cc2c(C(=O)NC[C@H](C)c3ccccc3)c(O)c(O)cc2c1O [Sabutoclax] (top concentration 25000 nM) | 13.8 | 10.8 | 13 | 14.5 | 10.6 | 12.2 | 16.8 | 15.7 | 11.3 | 11.1 | 15.6 | 5.18 | 9.18 | -7.42 | 16.2 | 12.8 | 13.7 | 16.3 | 15.9 | -7.22 |
| CC1=C2C[C@H]3[C@@H](CC[C@@H]4C[C@H](NS(C)(=O)=O)CC[C@@]43C)[C@@H]2CC[C@@]2(C1)O[C@@H]1C[C@H](C)CN[C@H]1[C@H]2C [Saridegib] (top concentration 10000 nM) | 0.54 | -0.06 | -1.16 | 2.94 | 4.74 | 1.74 | 6.64 | 5.34 | 5.04 | 0.34 | -0.96 | -1.16 | -0.86 | 1.74 | 3.44 | -0.06 | -0.06 | 0.24 | -0.66 | 3.14 |
| Cc1cc(F)c(C(=O)Nc2cccc(-c3nncn3C(C)C)n2)cc1-n1cnc(C2CC2)c1 [Selonsertib] (top concentration 1000 nM) | 0 | 0 | 0 | 0 | 0 | 0 | 0.5 | 0 | 0 | 0 | 0 | 0 | 0 | 6.7 | 0 | 0 | 0 | 0 | 0.9 | 0.2 |
| Nc1nc2cc(-c3ccc4ncc(C(=O)N5CCOCC5)n4c3)ccc2o1 [Serabelisib] (top concentration 10000 nM) | 0.86 | -0.44 | -1.54 | -1.04 | 0.66 | 4.96 | 6.56 | -1.54 | 2.96 | 0.36 | 4.06 | -1.54 | -1.54 | -1.54 | 0.06 | -1.14 | -1.54 | -1.24 | 1.46 | 0.46 |
| CCC(C)(C)C(=O)O[C@H]1C[C@@H](C)C=C2C=C[C@H](C)[C@H](CC[C@@H]3C[C@@H](O)CC(=O)O3)[C@H]21 [Simvastatin] (top concentration 10000 nM) | 2.18 | 0.68 | -0.72 | 1.48 | -0.72 | -0.72 | 2.18 | -0.72 | -0.72 | 0.08 | 3.48 | -0.72 | -0.72 | 5.78 | 2.58 | 0.68 | 2.18 | 0.08 | 1.28 | 2.58 |
| C=CCN(/C=C1/C(=O)O[C@H](COC)[C@@]2(C)C1=C(O)C(=O)C1=C2[C@H](OC(C)=O)C[C@]2(C)C(=O)CC[C@@H]12)CC=C [Sonolisib] (top concentration 10000 nM) | -0.56 | 4.24 | -0.76 | -0.76 | 1.64 | 2.44 | 2.14 | -0.66 | -0.76 | -0.76 | 0.94 | -0.76 | -0.76 | -0.76 | -0.76 | -0.66 | -0.76 | -0.76 | -0.16 | -0.06 |
| CC(C)n1cnc2c(NCCc3ccc(O)cc3)nc(-c3csc4ccccc34)nc21 [StemRegenin_1] (top concentration 10000 nM) | -0.1 | -1.8 | 2.7 | 1.5 | 4.5 | 1.9 | -0.6 | -1.8 | -1.8 | 0.9 | -0.1 | -1.8 | 2.5 | -1.8 | 3.9 | 0.8 | 0.2 | 1.9 | 2.2 | -1.8 |
| CC(C)(O)CC(=O)NCCn1ccc2ncnc(Nc3ccc(Oc4cccc(C(F)(F)F)c4)c(Cl)c3)c21 [TAK-285] (top concentration 2500 nM) | 0 | 0 | 0 | 0 | 0 | 0 | 0 | 0 | 0 | 0 | 0 | 0 | 0 | 3.1 | 0 | 0 | 0 | 0 | 0 | 0 |
| Nc1nc(N)c2nc(-c3cccc(O)c3)c(-c3cccc(O)c3)nc2n1 [TG100-115] (top concentration 10000 nM) | 0.1 | 0.6 | -0.4 | -0.2 | 0.1 | -0.2 | 5.6 | -0.4 | -0.4 | -0.2 | 3.7 | 0.1 | -0.4 | 3 | 0.8 | 0.2 | -0.3 | 3.9 | 3.6 | -0.4 |
| CC/C(=C(\c1ccccc1)c1ccc(OCCN(C)C)cc1)c1ccccc1 [Tamoxifen] (top concentration 10000 nM) | 4.12 | 5.42 | -1.58 | 1.02 | 3.72 | 2.72 | 4.42 | 2.32 | 5.72 | 1.72 | 1.82 | -3.28 | -0.98 | -0.48 | 1.92 | 1.32 | 0.32 | 0.92 | 3.32 | 0.52 |
| COc1cc2c(N3CCN(C(=O)Nc4ccc(OC(C)C)cc4)CC3)ncnc2cc1OCCCN1CCCCC1 [Tandutinib] (top concentration 1000 nM) | 0 | 0 | 0 | 0 | 2.3 | 3.1 | 0 | 0.3 | 0 | 0 | 0 | 4.5 | 0 | 0 | 0 | 0 | 0 | 0 | 0 | 0 |
